Paper PMC12410356 (International Journal for Parasitology: Drugs and Drug …, 2025)

System: E. multilocularis metacestode vesicles
Assay: Metacestode vesicle viability assay (ATP, CellTiter-Glo)
Type: cell-based, Echinococcus multilocularis
Conditions: overview screen, 10 μM, singlets, 12 days, relative to DMSO control
Description: Viability was assessed after 12 days using the same metacestode vesicles as for the PGI release assay. Triton X-100 was added to each well to a final concentration of 0.1 %. Subsequently the metacestode vesicles were broken mechanically and 50 μL of the supernatant was mixed with 50 μL of CellTiter-Glo® buffer (Promega, Dübendorf, Switzerland). Measurements were performed on a HIDEX Sense microplate reader.

Point of comparison: `NC(=S)N/N=C/c1ncccc1N` [MMV1580496], “Viability d12 (relative viability)” value 58.7881%. Against it:
- O=[N+]([O-])c1cn(Cc2nc(O)nc(O)c2Br)cn1 [MMV1579777] — higher, 93.1599%
- NC[C@H]1O[C@H](O[C@H]2[C@H](O)[C@@H](O[C@H]3O[C@H](CO)[C@@H](O)[C@H](N)[C@H]3O)[C@H](N)C[C@@H]2N)[C@H](N)C[C@@H]1O [MMV002459] — lower, 35.1523%
- CCC[C@H](NC(=O)[C@@H]1[C@H]2CCC[C@H]2CN1C(=O)[C@@H](NC(=O)[C@@H](NC(=O)c1cnccn1)C1CCCCC1)C(C)(C)C)C(=O)C(=O)NC1CC1 [MMV1580494] — higher, 83.9614%
- CCCCc1ccc(C(=O)O)nc1 [MMV001726] — higher, 162.188%
- CC(N)C12CC3CC(CC(C3)C1)C2 (stereo not drawn) [MMV637855] — higher, 63.7477%
- OC(Cn1cncn1)(Cn1cncn1)c1ccc(F)cc1F [MMV002337] — higher, 76.1493%
- Cc1c(N)cccc1Cn1ccc(OCCc2cccs2)cc1=O [MMV1578557] — higher, 70.6385%
- COc1cc(NC(=O)CN2C(=O)NC(c3ccccc3)(c3ccccc3)C2=O)cc(OC)c1 [MMV1578572] — higher, 61.4538%
- CCCCCOc1ccc(/C=C2\Oc3c(ccc(O)c3O)C2=O)c(O)c1 [MMV1580851] — higher, 137.102%
- CC(=O)N[C@H](C)C(=O)N[C@H](Cc1ccccc1)C(=O)O [MMV1580845] — higher, 90.1704%
- COc1nc2ccc(Br)cc2cc1[C@@H](c1ccccc1)[C@@](O)(CCN(C)C)c1cccc2ccccc12 [MMV689758] — higher, 111.826%
- O=C(Nc1nnc(-c2ccc(Cl)cc2)o1)c1ccc(F)cc1 [MMV1782140] — higher, 86.8653%
- O=C(CC1Sc2ncnn2C1=O)Nc1ccc(Br)cc1 (stereo not drawn) [MMV214956] — lower, 47.1606%
- Cc1ccc(N2CCC(CCOc3ccc(S(C)(=O)=O)cc3)CC2)nn1 [MMV1634394] — higher, 249.705%
- COc1ccc(COc2cc3oc(=O)c4cc(C(C)O)ccc4c3cc2OC)cc1 (stereo not drawn) [MMV1580799] — higher, 164.074%
- O=C(O)c1ccc(-n2nc(-c3ccccc3O)nc2-c2ccccc2O)cc1 [MMV640014] — higher, 145.619%
- CC1(C)CC(NC(=O)C(=O)Nc2ccc(Cl)cc2)CC(C)(C)N1 [MMV1580501] — higher, 102.317%
- CCNC(=O)Nc1cc(-c2ccccc2)c(-c2cncc(C(=O)O)c2)cn1 [MMV1593534] — higher, 81.2426%
- O=C(Nc1[nH]c(=O)ncc1F)c1ccccc1 [MMV1782225] — higher, 224.691%

System: E. multilocularis metacestode vesicles
Assay: Phosphoglucose isomerase (PGI) release assay (damage-marker release) on metacestode vesicles
Type: cell-based, Echinococcus multilocularis
Conditions: overview screen, 10 μM, singlets, 5 days, relative to 0.1 % Triton X-100, DMSO subtracted

Point of comparison: `Cc1ccc(N2CCC(CCOc3ccc(S(C)(=O)=O)cc3)CC2)nn1` [MMV1634394], “PGI d5 (relative PGI release)” value 0.369%. Against it:
- O=[N+]([O-])c1cn(Cc2nc(O)nc(O)c2Br)cn1 [MMV1579777] — lower, -0.845%
- NC[C@H]1O[C@H](O[C@H]2[C@H](O)[C@@H](O[C@H]3O[C@H](CO)[C@@H](O)[C@H](N)[C@H]3O)[C@H](N)C[C@@H]2N)[C@H](N)C[C@@H]1O [MMV002459] — lower, -1.087%
- CCC[C@H](NC(=O)[C@@H]1[C@H]2CCC[C@H]2CN1C(=O)[C@@H](NC(=O)[C@@H](NC(=O)c1cnccn1)C1CCCCC1)C(C)(C)C)C(=O)C(=O)NC1CC1 [MMV1580494] — lower, 0.1247%
- CCCCc1ccc(C(=O)O)nc1 [MMV001726] — lower, -0.06574%
- CC(N)C12CC3CC(CC(C3)C1)C2 (stereo not drawn) [MMV637855] — lower, 0.08745%
- OC(Cn1cncn1)(Cn1cncn1)c1ccc(F)cc1F [MMV002337] — lower, -1.63%
- Cc1c(N)cccc1Cn1ccc(OCCc2cccs2)cc1=O [MMV1578557] — lower, -0.9531%
- COc1cc(NC(=O)CN2C(=O)NC(c3ccccc3)(c3ccccc3)C2=O)cc(OC)c1 [MMV1578572] — lower, -1.463%
- CCCCCOc1ccc(/C=C2\Oc3c(ccc(O)c3O)C2=O)c(O)c1 [MMV1580851] — higher, 1.174%
- CC(=O)N[C@H](C)C(=O)N[C@H](Cc1ccccc1)C(=O)O [MMV1580845] — lower, 0.2541%
- COc1nc2ccc(Br)cc2cc1[C@@H](c1ccccc1)[C@@](O)(CCN(C)C)c1cccc2ccccc12 [MMV689758] — lower, -2.925%
- O=C(Nc1nnc(-c2ccc(Cl)cc2)o1)c1ccc(F)cc1 [MMV1782140] — lower, -3.764%
- O=C(CC1Sc2ncnn2C1=O)Nc1ccc(Br)cc1 (stereo not drawn) [MMV214956] — lower, -1.614%
- COc1ccc(COc2cc3oc(=O)c4cc(C(C)O)ccc4c3cc2OC)cc1 (stereo not drawn) [MMV1580799] — lower, -0.002121%
- O=C(O)c1ccc(-n2nc(-c3ccccc3O)nc2-c2ccccc2O)cc1 [MMV640014] — lower, -1.416%
- CC1(C)CC(NC(=O)C(=O)Nc2ccc(Cl)cc2)CC(C)(C)N1 [MMV1580501] — higher, 0.3852%
- NC(=S)N/N=C/c1ncccc1N [MMV1580496] — lower, -0.2661%
- CCNC(=O)Nc1cc(-c2ccccc2)c(-c2cncc(C(=O)O)c2)cn1 [MMV1593534] — lower, -2.168%
- O=C(Nc1[nH]c(=O)ncc1F)c1ccccc1 [MMV1782225] — lower, -0.8152%

Same assay, conditions: overview screen, 10 μM, singlets, 12 days, relative to 0.1 % Triton X-100, DMSO subtracted

Point of comparison: `CC1(C)CC(NC(=O)C(=O)Nc2ccc(Cl)cc2)CC(C)(C)N1` [MMV1580501], “PGI d12 (relative PGI release)” value 0.4399%. Against it:
- O=[N+]([O-])c1cn(Cc2nc(O)nc(O)c2Br)cn1 [MMV1579777] — lower, -7.383%
- NC[C@H]1O[C@H](O[C@H]2[C@H](O)[C@@H](O[C@H]3O[C@H](CO)[C@@H](O)[C@H](N)[C@H]3O)[C@H](N)C[C@@H]2N)[C@H](N)C[C@@H]1O [MMV002459] — lower, -12.65%
- CCC[C@H](NC(=O)[C@@H]1[C@H]2CCC[C@H]2CN1C(=O)[C@@H](NC(=O)[C@@H](NC(=O)c1cnccn1)C1CCCCC1)C(C)(C)C)C(=O)C(=O)NC1CC1 [MMV1580494] — lower, -0.8271%
- CCCCc1ccc(C(=O)O)nc1 [MMV001726] — lower, -20.229%
- CC(N)C12CC3CC(CC(C3)C1)C2 (stereo not drawn) [MMV637855] — lower, -0.5462%
- OC(Cn1cncn1)(Cn1cncn1)c1ccc(F)cc1F [MMV002337] — lower, -24.335%
- Cc1c(N)cccc1Cn1ccc(OCCc2cccs2)cc1=O [MMV1578557] — lower, -14.0356%
- COc1cc(NC(=O)CN2C(=O)NC(c3ccccc3)(c3ccccc3)C2=O)cc(OC)c1 [MMV1578572] — lower, -23.3736%
- CCCCCOc1ccc(/C=C2\Oc3c(ccc(O)c3O)C2=O)c(O)c1 [MMV1580851] — lower, -13.3457%
- CC(=O)N[C@H](C)C(=O)N[C@H](Cc1ccccc1)C(=O)O [MMV1580845] — lower, -2.372%
- COc1nc2ccc(Br)cc2cc1[C@@H](c1ccccc1)[C@@](O)(CCN(C)C)c1cccc2ccccc12 [MMV689758] — lower, -4.755%
- O=C(Nc1nnc(-c2ccc(Cl)cc2)o1)c1ccc(F)cc1 [MMV1782140] — higher, 9.726%
- O=C(CC1Sc2ncnn2C1=O)Nc1ccc(Br)cc1 (stereo not drawn) [MMV214956] — lower, -20.0728%
- Cc1ccc(N2CCC(CCOc3ccc(S(C)(=O)=O)cc3)CC2)nn1 [MMV1634394] — lower, -19.1494%
- COc1ccc(COc2cc3oc(=O)c4cc(C(C)O)ccc4c3cc2OC)cc1 (stereo not drawn) [MMV1580799] — lower, -19.4753%
- O=C(O)c1ccc(-n2nc(-c3ccccc3O)nc2-c2ccccc2O)cc1 [MMV640014] — lower, -24.5374%
- NC(=S)N/N=C/c1ncccc1N [MMV1580496] — higher, 1.095%
- CCNC(=O)Nc1cc(-c2ccccc2)c(-c2cncc(C(=O)O)c2)cn1 [MMV1593534] — lower, -24.3929%
- O=C(Nc1[nH]c(=O)ncc1F)c1ccccc1 [MMV1782225] — lower, -21.87%
